“And” between values parts separate entries of the source, which are not always exact repeats. Equal values may be shown once.

One data set concerns mGFAP protein. Kind of data set: cell-based GFAP protein level assay (cell-based ELISA) in 172.9 cells. Also noted: species or system mouse. Conditions: tertiary screen; 48 hr exposure; at the MTDcc.
A further data set relates to 172.9 cells. Nature of the data set: cell viability (CellTiter-Glo) / MTDcc in 172.9 cells.
Another data set deals with GFAP protein. Kind of data set: GFAP protein in brain of Tg172.9 mice (sandwich ELISA). The class given is in vivo, mouse. How it is done: Another group of mice were injected with the same volume of vehicle alone (n=15). Brains were bisected sagittally with one half analyzed for GFAP promoter activity using the Dual-Glo assay, and the other half analyzed for GFAP protein using the sandwich ELISA. FIG. 7A is a bar graph showing hGFAP promoter activity of clomipramine-treated mice. The mice show a 26% reduction in hGFAP promoter activity compared to vehicle-treated controls. FIG. 7B is a bar graph showing the GFAP protein levels of clomipramine-treated mice. The mice show a 57% reduction in total GFAP content compared to vehicle-treated controls. Graphs present the mean±SD (* p<0.05, ***p<0.001, unpaired t-test).
At various times after injection, from 0-48 hours, brains were harvested for measurement of GFAP promoter activity using the Dual-Glo luciferase assay, and GFAP protein using a sandwich ELISA.
Injections were given in the afternoon, between 3-5 PM. Controls were transgenic littermates injected with vehicle alone. At the end of the three week course of injections (and one day after the last injection), brains were harvested for analysis of GFAP promoter activity and protein levels as described above.
To achieve significant reductions of GFAP protein in vivo may require chronic treatments, given the slow turnover of this protein. […] Controls were injected with vehicle alone. […]

A further data set relates to GAPDH promoter. Kind of data set: housekeeping GAPDH promoter activity in brain of Tg172.9 mice. Conditions: 40 mg/kg IP every other day for 3 weeks. The data set is classed as in vivo, mouse. How it is done: The dual transgenic reporter mice (FVB-Tg(GFAP-luc,GAPDH-luc)172.9Mes/J mice (JR#9638)) were developed as follows. The two transgenes were co-injected at equimolar ratios into the pronuclei of fertilized eggs on either FVB/N or FB6F1 hybrid backgrounds, using a combined concentration of 3 ng/μL. Genotyping was performed by PCR on genomic DNA isolated from tail biopsies at weaning, using the following conditions: one cycle at 95° C. 3 min, 32 cycles of 95° C. 40 s, 58° C. 30 s, 72° C. 1 min and a final extension step at 72° C. for 5 min. The primers used for detection of the GFAP-fLuc transgene were 5′-[…]-3′ (forward) and 5′-[…]-3′ (reverse), and for detection of the GAPDH-RLuc transgene were 5″-[…]-3′ (forward) and 5′-[…]-3′ (reverse). The predicted sizes for the PCR fragments are 403 bp for the GFAP-fLuc transgene, and 551 by for the GAPDH-RLuc transgene. Nine founder mice were identified that contained both transgenes, and were mated to FVB/N mice to establish lines. (The Tg172-9 line of mice has been donated to the Jackson Laboratory ([…]) for unrestricted distribution (stock #JR9638). The GAPDH (glyceraldehyde 3-phosphate dehydrogenase) promoter was used to monitor transcription of a housekeeping gene for signal normalization.

For data set [1] the following is noted: sometimes considered in combination with desmethyl-clomipramine; cited from earlier work.

With `CN(C)CCCN1c2ccccc2CCc2ccc(Cl)cc21` [clomipramine], the “% GFAP reductions, mGFAP protein via ELISA” value with mGFAP protein is on record as 20.6%. Also, the cell viability entry in the data set on 172.9 cells (quaternary screen, 10 days of exposure) is given as “acceptable cell viability”. Moreover, the MTDcc with 172.9 cells (tertiary screen, 48 hr exposure, 0.1-20 μM, highest concentration that retained at least 70% cell viability) was 12.5 µM. Further, the “reduction in GFAP protein compared to vehicle-treated controls” value with GFAP protein (40 mg/kg IP every other day for 3 weeks) is 57% and ~50%. In addition, the “changes in GFAP protein levels” value in the data set on GFAP protein (acute treatment, single IP injection, 0-48 hours) is listed as “no changes”. For the same compound, in the data set with GAPDH promoter, the “change in activity from the housekeeping GAPDH promoter” value is given as “no significant change”. Besides, in data set [1], the “plasma concentration considered therapeutic in humans” value is 300 to 1750 nM.

These data come from US8372808B2, “Suppression of glial fibrillary acidic protein” (Wisconsin Alumni Research Foundation, priority 2008, dated 2013).
